The values below are quoted from earlier work in US20030064108A1, “TASTE MASKED PHARMACEUTICAL COMPOSITIONS” (priority 1996, published 2003).

The conditions of the data set: 1 g every 6 hours, repeated administration.

For `CC(=O)Nc1ccc(O)cc1` [paracetamol], the mean maximum concentration entry is on record as “about 12 mg/L” and the “mean trough plasma concentration (immediately pre-dose)” value is on record as 3 mg/L.
